One assay deals with Beta-galactosidase (Escherichia coli, UniProt Q8VNN2). The assay is described as follows: detection-enzyme interference by beta-gal modulators – biochemical, E. coli enzyme, set 3, artefact control for CCR6 antagonist project, dose response (AID 504712). The class given is functional.
Assay [1] in a line: loss of viability in HepG2 cells – cell-based, CellTiter-Glo, cherry-picked, cytotoxicity control for Shn3 inhibitor project, dose response (AID 624134). The class given is functional.
Assay [2] in a line: reduction of Shn3 3'UTR-driven luciferase in osteoblasts – cell-based, Clone20 osteoblasts, firefly luciferase, cherry-picked, dose response (AID 624132).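 Note: firefly luciferase luminescence from reporter carrying the Shn3 3'UTR in osteoblasts.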 The class given is functional.
The nature of assay [3]: non-specific 3'UTR reporter inhibition in Clone20-Shn3RL – cell-based, Renilla luciferase, cherry-picked, counter-screen for Shn3 inhibitor project, dose response (AID 624133). The class given is functional. (In general: The purpose of a counterscreen is to sort out artefacts and off-target activity.)
Assay [4] deals with Intestinal-type alkaline phosphatase (Homo sapiens, UniProt P09923). In words: Dose Response confirmation of uHTS hits from a small molecule inhibitors of human intestinal alkaline phosphatase via a luminescent assay. [Related pubchem assays (depositor defined):AID2544, AID2574]. The class given is functional.
Chain of Intestinal-type alkaline phosphatase (P09923 whole entry): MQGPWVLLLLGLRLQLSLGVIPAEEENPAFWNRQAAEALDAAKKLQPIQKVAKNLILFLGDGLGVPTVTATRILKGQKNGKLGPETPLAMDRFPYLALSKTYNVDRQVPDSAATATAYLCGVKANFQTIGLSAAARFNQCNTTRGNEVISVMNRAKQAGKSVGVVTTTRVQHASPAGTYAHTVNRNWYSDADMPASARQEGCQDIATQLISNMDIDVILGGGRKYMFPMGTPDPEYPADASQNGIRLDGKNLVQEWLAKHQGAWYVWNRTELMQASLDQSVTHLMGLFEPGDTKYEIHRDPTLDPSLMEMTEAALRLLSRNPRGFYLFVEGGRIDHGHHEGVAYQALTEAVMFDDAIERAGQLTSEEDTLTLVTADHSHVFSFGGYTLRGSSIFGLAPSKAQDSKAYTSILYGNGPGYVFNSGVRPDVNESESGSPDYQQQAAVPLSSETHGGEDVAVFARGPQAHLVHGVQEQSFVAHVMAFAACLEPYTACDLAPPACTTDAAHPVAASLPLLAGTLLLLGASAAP
Assay [5] concerns the target T1, Neuropeptides B/W receptor type 1 (Homo sapiens, UniProt P48145).
T1 sequence (P48145 whole entry): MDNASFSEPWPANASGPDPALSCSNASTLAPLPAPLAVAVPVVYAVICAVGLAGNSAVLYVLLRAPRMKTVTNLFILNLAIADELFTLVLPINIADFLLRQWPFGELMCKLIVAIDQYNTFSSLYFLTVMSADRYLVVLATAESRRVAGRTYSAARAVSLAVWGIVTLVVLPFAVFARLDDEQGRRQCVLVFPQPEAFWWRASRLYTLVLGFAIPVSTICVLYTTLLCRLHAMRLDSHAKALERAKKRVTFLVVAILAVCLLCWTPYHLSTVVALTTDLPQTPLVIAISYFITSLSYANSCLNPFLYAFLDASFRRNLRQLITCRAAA
The assay is described as follows: human NPBW1 receptor blockade, IC50 – cell-based, fluorescence, dose response, late-stage follow-up (AID 463251). The class given is functional.

The target in assay [6] is Melanin-concentrating hormone receptor 1 (Homo sapiens, UniProt Q99705). The assay is described as follows: Late-stage fluorescence-based counterscreen for antagonists of the G-protein coupled receptor 7 (GPR7): cell-based dose response assay to identify antagonists of the melanin-concentrating hormone receptor 1 (MCHR1). [Related pubchem assays (depositor defined):AID1861, AID1880, AID1952, AID2148, AID2251, AID2257, AID485339]. The class given is functional.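 Note: stimulated with 30 nM MCH peptide agonist.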
Chain of Melanin-concentrating hormone receptor 1 (Q99705 whole entry): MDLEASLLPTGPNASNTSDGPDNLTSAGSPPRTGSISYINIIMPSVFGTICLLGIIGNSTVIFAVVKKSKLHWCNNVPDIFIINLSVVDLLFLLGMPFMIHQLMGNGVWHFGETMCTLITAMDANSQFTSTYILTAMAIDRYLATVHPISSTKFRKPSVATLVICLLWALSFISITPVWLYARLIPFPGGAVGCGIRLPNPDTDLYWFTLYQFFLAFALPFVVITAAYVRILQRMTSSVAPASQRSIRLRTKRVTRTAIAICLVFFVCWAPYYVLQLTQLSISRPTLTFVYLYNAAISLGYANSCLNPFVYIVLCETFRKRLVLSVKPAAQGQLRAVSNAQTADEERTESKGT

The nature of assay [7]: microbe, parasite or virus in culture. The note with it: Mycobacterium tuberculosis. The class given is functional.
Another assay has as its target Genome polyprotein (Hepatitis C virus, UniProt Q2Q167). In words: disruption of hepatitis C core self-association – biochemical, TR-FRET, dose response (AID 2159).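 Note: blocks dimerization of HCV core protein measured by TR-FRET between tagged core106 pairs.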 On the set-up: species or system Hepacivirus hominis. Background: Time-resolved FRET reads energy transfer from a long-lived donor to a nearby acceptor.
A further assay concerns the target Protein Rev (Human immunodeficiency virus type 1 group M subtype B (isolate HXB2)(HIV-1), UniProt P04618). In words: blockers of HIV Rev/RRE RNA complex – biochemical, fluorescence polarization, HIV-1, dose response (AID 434976). Also on record: species or system Human immunodeficiency virus 1. On the technique in general: Fluorescence polarisation rises when a labelled molecule tumbles more slowly, as on binding a larger partner.

The target in assay [8] is Female germline-specific tumor suppressor gld-1 (Caenorhabditis elegans, UniProt Q17339). In words: blockers of GLD-1/TGE RNA complex formation – biochemical, fluorescence polarization, C. elegans, dose response (AID 2802).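 Note: fluorescence polarization of labeled TGE RNA bound by purified gld-1 protein.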
Chain of Female germline-specific tumor suppressor gld-1 (Q17339 whole entry): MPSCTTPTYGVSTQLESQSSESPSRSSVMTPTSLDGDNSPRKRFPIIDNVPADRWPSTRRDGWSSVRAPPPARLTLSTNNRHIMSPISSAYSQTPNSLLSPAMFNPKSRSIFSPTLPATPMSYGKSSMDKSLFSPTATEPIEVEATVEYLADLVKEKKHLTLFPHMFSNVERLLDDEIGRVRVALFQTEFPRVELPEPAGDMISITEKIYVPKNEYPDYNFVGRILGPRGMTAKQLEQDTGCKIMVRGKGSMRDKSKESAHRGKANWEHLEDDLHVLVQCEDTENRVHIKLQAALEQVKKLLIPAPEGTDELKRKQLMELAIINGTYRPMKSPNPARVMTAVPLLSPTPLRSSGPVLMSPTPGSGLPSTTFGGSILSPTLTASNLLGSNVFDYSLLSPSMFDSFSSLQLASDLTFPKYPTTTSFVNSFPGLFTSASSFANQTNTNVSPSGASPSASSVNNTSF
The target of assay [9] is Eukaryotic translation initiation factor 4E (Mus musculus, UniProt P63073). The assay is described as follows: blockers of eIF4G binding by eIF4E – biochemical, TR-FRET, dose response (AID 855).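 Note: potency for disrupting eIF4E binding to eIF4GI seen as loss of FRET.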 The class given is functional.
Chain of Eukaryotic translation initiation factor 4E (P63073 whole entry): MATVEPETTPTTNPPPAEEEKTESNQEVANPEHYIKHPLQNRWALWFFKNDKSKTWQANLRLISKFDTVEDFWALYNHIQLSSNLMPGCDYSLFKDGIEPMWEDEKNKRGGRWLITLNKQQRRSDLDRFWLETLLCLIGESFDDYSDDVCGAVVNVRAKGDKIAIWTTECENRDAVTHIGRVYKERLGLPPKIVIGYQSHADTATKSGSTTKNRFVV
Assay [10] concerns the target G-protein coupled receptor 35 (Homo sapiens, UniProt Q9HC97). The assay is described as follows: inhibition of zaprinast-stimulated GPR35 beta-arrestin translocation – imaging, U2OS, beta-arrestin-GFP, zaprinast agonist, primary screen (AID 2058).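 Note: antagonist potency meaning inhibition of agonist-induced arrestin redistribution.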 The class given is functional.
For assay [11], the target named is T2, Replicative DNA helicase DnaB (Mycobacterium tuberculosis, UniProt P9WMR3).
T2 sequence (P9WMR3 whole entry): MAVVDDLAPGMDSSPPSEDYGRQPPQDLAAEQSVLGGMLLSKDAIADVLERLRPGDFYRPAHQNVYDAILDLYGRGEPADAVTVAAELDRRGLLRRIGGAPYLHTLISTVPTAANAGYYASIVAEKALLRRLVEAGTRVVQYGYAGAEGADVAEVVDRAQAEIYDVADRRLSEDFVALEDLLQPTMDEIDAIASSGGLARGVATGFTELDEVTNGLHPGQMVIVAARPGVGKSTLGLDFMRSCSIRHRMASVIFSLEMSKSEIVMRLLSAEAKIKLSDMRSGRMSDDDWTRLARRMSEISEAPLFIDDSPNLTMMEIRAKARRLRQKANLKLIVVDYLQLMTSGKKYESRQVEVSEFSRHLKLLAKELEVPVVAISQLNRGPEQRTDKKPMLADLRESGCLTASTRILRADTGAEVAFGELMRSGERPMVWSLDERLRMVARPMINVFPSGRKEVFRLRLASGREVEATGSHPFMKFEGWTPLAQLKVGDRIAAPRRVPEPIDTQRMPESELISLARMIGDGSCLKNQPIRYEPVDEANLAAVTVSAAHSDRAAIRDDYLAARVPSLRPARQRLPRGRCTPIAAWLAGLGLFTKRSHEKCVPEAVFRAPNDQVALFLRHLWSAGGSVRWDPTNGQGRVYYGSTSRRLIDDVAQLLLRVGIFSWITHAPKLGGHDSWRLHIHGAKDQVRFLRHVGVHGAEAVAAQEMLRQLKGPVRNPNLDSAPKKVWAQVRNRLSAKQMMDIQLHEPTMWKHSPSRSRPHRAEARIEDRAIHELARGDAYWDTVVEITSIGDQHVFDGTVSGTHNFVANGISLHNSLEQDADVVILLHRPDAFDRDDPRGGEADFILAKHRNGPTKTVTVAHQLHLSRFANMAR
The assay is described as follows: DnaB intein splicing inhibitors, dose response, biochemical, cell-free fluorescence (AID 449749). The class given is functional.

The nature of assay [12]: viability of HCT116 lacking mutant beta-catenin – cell-based, human colon tumor, dose response (AID 1045).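 Note: HCT116 colon tumor cells with beta catenin knocked out; cells exposed to compound for 60 hours.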 The class given is functional.
The test system of the next assay is INS1. The assay is described as follows: INS-1E survival protection against cytokine death – cell-based, luminescence, retest, dose response (AID 449756).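 Note: cell death triggered by IL-1 beta plus TNF-alpha plus IFN-gamma mixture; protective hits raise ATP signal compared with cytokine alone wells.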 The note with it: Rattus norvegicus. The class given is functional.
Assay [13] in a line: viability of PTEN-deleted HCT116 cells – cell-based, HCT116 PTEN knockout, dose response (AID 1047).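 Note: HCT116 colon tumor cells with PTEN knocked out; cells exposed to compound for 60 hours before readout; potency for loss of cell viability measured by luminescence.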 The class given is functional.
In the next assay the test system is BJ. In words: growth inhibition of engineered Ras-driven BJ cells – cell-based, alamar blue fluorescence, cherrypicked samples, dose response (AID 2631).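 Note: confirmatory dose-response assay in RAS-dependent BJ fibroblasts engineered with TERT, LT and ST, with cytotoxicity read by fluorescence.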 The class given is functional. The note with it: Homo sapiens.
The next assay deals with T3, Protein RecA (Mycobacterium tuberculosis, UniProt P9WHJ3).
T3 sequence (P9WHJ3 whole entry): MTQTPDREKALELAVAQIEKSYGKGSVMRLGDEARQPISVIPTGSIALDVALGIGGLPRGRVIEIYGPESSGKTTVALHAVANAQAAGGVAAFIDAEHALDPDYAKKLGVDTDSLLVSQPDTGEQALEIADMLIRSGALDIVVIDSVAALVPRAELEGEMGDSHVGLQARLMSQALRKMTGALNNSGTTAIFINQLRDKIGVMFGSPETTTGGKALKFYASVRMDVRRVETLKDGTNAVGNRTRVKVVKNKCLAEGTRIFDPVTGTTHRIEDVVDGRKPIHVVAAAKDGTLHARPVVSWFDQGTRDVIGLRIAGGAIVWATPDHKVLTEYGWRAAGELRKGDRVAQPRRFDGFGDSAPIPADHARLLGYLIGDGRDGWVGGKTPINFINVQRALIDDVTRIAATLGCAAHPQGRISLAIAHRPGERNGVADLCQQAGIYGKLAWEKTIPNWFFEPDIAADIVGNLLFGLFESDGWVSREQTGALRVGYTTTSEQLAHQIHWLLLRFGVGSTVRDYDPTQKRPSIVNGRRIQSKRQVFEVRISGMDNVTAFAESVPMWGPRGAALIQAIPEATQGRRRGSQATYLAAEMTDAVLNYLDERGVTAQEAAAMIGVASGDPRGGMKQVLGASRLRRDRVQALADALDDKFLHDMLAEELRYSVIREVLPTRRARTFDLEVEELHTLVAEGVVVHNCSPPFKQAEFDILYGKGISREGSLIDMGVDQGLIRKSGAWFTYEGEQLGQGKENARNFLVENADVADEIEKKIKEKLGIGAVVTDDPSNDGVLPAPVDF
The assay is described as follows: Fluorescence Cell-Free Homogeneous Dose Retest to Identify Inhibitors of RecA-Intein Splicing Activity. [Related pubchem assays (depositor defined):AID2097, AID2223, AID489010, AID492950]. The class given is functional.

The target in the next assay is Paired box protein Pax-8 (Homo sapiens, UniProt Q06710). The assay is described as follows: PAX8 transcriptional activity inhibition in RMG-I – RMG-I cells, luciferase, cherry-pick, dose response (AID 687027).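 Note: luciferase reporter driven by Pax8 target thyroperoxidase promoter measured by SteadyGlo luminescence.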 The class given is functional, cell-based.
Chain of Paired box protein Pax-8 (Q06710 whole entry): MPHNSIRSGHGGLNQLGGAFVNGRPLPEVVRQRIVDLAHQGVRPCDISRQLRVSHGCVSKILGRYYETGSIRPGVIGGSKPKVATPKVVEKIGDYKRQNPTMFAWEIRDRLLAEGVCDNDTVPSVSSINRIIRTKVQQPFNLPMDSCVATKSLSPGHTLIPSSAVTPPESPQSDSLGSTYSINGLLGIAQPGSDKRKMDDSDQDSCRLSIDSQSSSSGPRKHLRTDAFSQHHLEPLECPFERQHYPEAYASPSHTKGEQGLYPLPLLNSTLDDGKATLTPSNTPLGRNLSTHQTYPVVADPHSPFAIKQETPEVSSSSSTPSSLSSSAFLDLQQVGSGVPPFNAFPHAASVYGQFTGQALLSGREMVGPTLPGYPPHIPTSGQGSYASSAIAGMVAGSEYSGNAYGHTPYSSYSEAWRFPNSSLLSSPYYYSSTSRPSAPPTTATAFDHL
Assay [14] addresses Eukaryotic translation initiation factor 4H (Homo sapiens, UniProt Q15056). In words: inhibitors of translation initiation factor eIF4H – SAR follow-up (AID 435011). The class given is functional.
Assay [15] addresses Polyadenylate-binding protein 1 (Homo sapiens, UniProt P11940). In words: PABP inhibition in translation initiation, SAR follow-up (AID 435018). The class given is functional.

Six compounds from ChEMBL document CHEMBL1201862, “PubChem BioAssay data set” (2004) can be followed below.

What is called IC50 is the midpoint of a concentration-inhibition curve. Broadly, the AC50 is the concentration giving half of the maximal activity seen. Broadly, the EC50 is the midpoint of the concentration-response curve.

Active and inactive are the calls of the source.

Chain of Protein Rev (P04618 whole entry): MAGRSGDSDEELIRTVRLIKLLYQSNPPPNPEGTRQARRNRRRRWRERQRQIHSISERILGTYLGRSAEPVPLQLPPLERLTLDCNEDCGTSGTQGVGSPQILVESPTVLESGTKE
Chain of Genome polyprotein (Q2Q167 whole entry): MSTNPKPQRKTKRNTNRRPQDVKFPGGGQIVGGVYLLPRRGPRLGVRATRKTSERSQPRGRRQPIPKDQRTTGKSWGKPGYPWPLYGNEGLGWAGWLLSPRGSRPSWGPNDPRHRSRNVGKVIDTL
Chain of Beta-galactosidase (Q8VNN2 whole entry): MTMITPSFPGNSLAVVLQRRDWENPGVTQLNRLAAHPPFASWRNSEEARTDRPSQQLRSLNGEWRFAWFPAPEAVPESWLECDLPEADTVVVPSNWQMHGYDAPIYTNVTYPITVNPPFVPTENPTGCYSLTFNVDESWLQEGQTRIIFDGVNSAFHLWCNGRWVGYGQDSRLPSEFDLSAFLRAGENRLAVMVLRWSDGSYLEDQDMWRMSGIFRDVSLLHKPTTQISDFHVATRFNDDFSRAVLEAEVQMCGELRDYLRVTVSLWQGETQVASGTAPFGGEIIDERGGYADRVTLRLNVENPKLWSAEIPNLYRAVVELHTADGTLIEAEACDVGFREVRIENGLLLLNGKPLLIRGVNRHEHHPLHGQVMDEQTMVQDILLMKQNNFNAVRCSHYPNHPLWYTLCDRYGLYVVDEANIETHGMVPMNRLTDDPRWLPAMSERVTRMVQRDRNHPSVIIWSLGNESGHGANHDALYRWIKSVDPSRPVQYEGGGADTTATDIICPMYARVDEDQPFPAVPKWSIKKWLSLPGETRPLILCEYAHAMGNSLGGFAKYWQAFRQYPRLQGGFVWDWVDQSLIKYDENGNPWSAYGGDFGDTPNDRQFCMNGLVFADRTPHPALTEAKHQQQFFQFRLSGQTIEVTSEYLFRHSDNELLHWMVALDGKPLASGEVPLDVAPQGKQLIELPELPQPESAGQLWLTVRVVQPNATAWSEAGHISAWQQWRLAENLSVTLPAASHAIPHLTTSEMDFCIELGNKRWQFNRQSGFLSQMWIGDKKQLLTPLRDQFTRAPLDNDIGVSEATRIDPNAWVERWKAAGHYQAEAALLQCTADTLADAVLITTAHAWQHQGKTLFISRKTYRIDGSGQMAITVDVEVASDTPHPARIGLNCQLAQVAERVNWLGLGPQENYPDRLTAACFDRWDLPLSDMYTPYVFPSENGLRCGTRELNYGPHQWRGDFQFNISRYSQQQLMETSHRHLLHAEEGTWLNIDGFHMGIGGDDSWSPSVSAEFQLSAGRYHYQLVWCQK
Chain of Polyadenylate-binding protein 1 (P11940 whole entry): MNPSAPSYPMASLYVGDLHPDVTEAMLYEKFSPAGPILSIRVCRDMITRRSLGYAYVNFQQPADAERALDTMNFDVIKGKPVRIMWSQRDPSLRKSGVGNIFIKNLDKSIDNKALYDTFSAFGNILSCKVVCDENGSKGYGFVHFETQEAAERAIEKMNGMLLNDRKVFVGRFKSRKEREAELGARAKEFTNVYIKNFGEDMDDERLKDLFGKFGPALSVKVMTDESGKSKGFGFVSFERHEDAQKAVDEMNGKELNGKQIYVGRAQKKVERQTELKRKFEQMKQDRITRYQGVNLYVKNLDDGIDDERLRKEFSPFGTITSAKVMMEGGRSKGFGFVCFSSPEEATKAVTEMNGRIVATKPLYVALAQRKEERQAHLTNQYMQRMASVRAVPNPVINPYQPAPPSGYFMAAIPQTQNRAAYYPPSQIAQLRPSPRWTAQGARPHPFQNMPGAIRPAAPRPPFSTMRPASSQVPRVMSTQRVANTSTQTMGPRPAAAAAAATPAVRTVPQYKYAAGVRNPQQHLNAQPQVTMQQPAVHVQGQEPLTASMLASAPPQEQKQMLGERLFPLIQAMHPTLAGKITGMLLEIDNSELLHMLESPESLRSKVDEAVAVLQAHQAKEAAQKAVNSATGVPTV
Chain of G-protein coupled receptor 35 (Q9HC97 whole entry): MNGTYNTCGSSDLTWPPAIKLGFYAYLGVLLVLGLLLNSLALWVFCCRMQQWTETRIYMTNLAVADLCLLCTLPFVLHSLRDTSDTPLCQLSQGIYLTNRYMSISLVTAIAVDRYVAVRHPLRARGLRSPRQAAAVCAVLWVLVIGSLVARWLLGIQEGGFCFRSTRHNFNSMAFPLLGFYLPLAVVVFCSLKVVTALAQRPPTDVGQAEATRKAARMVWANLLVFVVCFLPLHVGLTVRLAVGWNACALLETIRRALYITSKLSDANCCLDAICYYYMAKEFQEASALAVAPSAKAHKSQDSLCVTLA

Regarding `O=C1CC(Sc2nnc(-c3ccccc3O)o2)C(=O)N1c1ccccc1` (configuration not stated), the IC50 at Beta-galactosidase is > 66.6 µM (inactive). Further, the results for the AC50 in [1], in assay [2] and in [3] were 45.2 µM (active), 12.9 µM (active) and 17.8 µM (active), respectively.
Turning to `O=C(NCCCN1CCOCC1)c1ccc2c(c1)N(Cc1ccc(Cl)cc1)C(=O)c1ccccc1[S+]2[O-]` (configuration not stated), in assay [4], the IC50 is > 100 µM (inactive).
As for `COc1ccc(Oc2c(Cl)cnn(-c3cccc(C#N)c3)c2=O)cc1`, the figures for the IC50 in assay [5] and in [6] were 2.8 µM (active) and 14.2 µM (inactive), respectively.
`CC1=CC(=O)c2c(O)ccc(O)c2C1=O`: the CC50 in assay [7] is 12.9 µM (active). For the same compound, the IC50 against Genome polyprotein was > 49.8 µM (not active); on Protein Rev it was > 75.4 µM (not active); in assay [8], 5.58 µM (active); in assay [9], 10.3 µM (active).
Regarding `O=S(=O)(/C(=C/c1ccc(C(F)(F)F)cc1)c1nc2ccccc2[nH]1)c1ccccc1`, the IC50 in assay [10] is > 32 µM (inactive). The AC50 in assay [11] is 3.54 µM (active); with INS1, 4.43 µM (active); on Paired box protein Pax-8 it was 2.82 µM (active). Also, the concentration for a half-maximal effect (EC50) was 1.68 µM (active) in [12], 1.89 µM (active) in assay [13], 0.601 µM (active) with BJ and 5.85 µM (active) at Protein RecA.
On to `Cc1cc(Cl)ccc1NC(=O)C1CCN(C(=O)c2cccs2)CC1`, for which the IC50 in assay [14] and in assay [15] was > 100 µM (inactive) each time.
